Reference: patent US8716242B2, “β-hairpin peptidomimetics” (priority 2009, dated 2014)
Where two headings read alike, the source gives them in different places. Bridge positions count the residues as written; N and C are the ends. Square brackets hold non-standard residues; d marks the D form. Side chains are listed from the residue outwards. Peptide text beside a SMILES is read from it. * marks the point of attachment. Cholyl = C[C@H](CCC(=O)*)[C@H]1CC[C@H]2[C@@H]3[C@H](O)C[C@@H]4C[C@H](O)CC[C@]4(C)[C@H]3C[C@H](O)[C@]12C; Lauroyl = CCCCCCCCCCCC(=O)*; Decanoyl = CCCCCCCCCC(=O)*; Octanoyl = CCCCCCCC(=O)*; Dab = NCC[C@H](N)C(=O)O; X3 = CCCCCCCCCC*

Key:
[1] = Plasma stability in mouse plasma; type: in vitro ADME; conditions: mouse plasma, 37° C.; for remaining at 24 h, 10 μM: 1440 min, read-out: mouse pl. cpd left at 1440 min
Procedure: (§1) Percent hemolysis was calculated as follows: (OD540peptide/OD540H2O)×100%. 2.6. Plasma Stability
(§2) The stability of the peptides in human and mouse plasma was determined by applying the following method: 346.5 μL/deep well of freshly thawed human plasma (Basler Blutspendedienst) and mouse plasma (Harlan Sera-Lab, UK), respectively, were spiked with 3.5 μL/well of compound dissolved in DMSO/H2O ([…] [v/v], 1 mM, triplicate) and incubated at 37° C. At t=0, 15, 30, 60, 120, 240 and 1440 min aliquots of 50 μL were transferred to filtration plate wells containing 150 μL/well of 2% formic acid in acetonitrile. Following shaking for 2 min the occurred suspensions were filtrated by vacuum and 50 μL of each filtrate was mixed with 100 μL of 1% formic acid in H2O. After transfer to a propylene microtiter plate, the filtrates were analyzed by LC/MS as follows: Column: Waters, XBridge C18, mobile phases: (A) water+0.1% formic acid and (B) acetonitrile/water, 95/5 (v/v)+0.1% formic acid, gradient: 5%-100% (B) in 2 minutes, electrospray ionization, MRM detection (triple quadrupole). The peak areas were determined and triplicate values are averaged. The stability is expressed in percent of the initial value at t=0. (tx/t0×100). By using the TREND function of EXCEL (Microsoft Office 2003) T1/2 were determined.

[2] = test system: human red blood cells (hRBC); experiment: Hemolysis of human red blood cells; type: cell-based; conditions: 20% hRBC, 1 h, 37° C.
Procedure: The peptides were tested for their hemolytic activity against human red blood cells (hRBC). Fresh hRBC were washed three times with phosphate buffered saline (PBS) and centrifuged for 10 min at 2000×g. Compounds (100 μM) were incubated with 20% hRBC (v/v) for 1 h at 37° C. and shaking at 300 rpm. The final erythrocyte concentration was approximately 0.9×10^9 cells/mL. A value of 0% and 100% cell lyses, respectively, was determined by incubation of hRBC in the presence of PBS containing 0.001% acetic acid and 2.5% Triton X-100 in H2O, respectively. The samples were centrifuged, the supernatants were 8-fold diluted in PBS buffer and the optical densities (OD) were measured at 540 nm. The 100% lyses value (OD540H2O) gave an OD540 of approximately 0.5-1.0.
as §1

[3] = target: T1, human CXCR4 (Homo sapiens, UniProt P61073); experiment: Ca2+-assay: CXCR4-antagonizing activity (SDF-1 induced calcium mobilization); type: cell-based
T1 construct: expressed in transfected cells; host or cells: mouse pre-B cell line 300-19
Description: 2.3. Ca^2+-Assay: CXCR4-Antagonizing Activity of the Peptides
Increases in intracellular calcium were monitored using a Flexstation 384 (Molecular Devices, Sunnyvale, Calif.) to assay the peptides for CXCR4 antagonism in a mouse pre-B cell line 300-19 stably transfected with human CXCR4 (E. Oberlin, A. Amara, F. Bachelerie, C. Bessia, J.-L. Virelizier, F. Arenzana-Seisdedos, O, Schwartz, J.-M. Heard, I. Clark-Lewis, D. F. Legler, M. Loetscher, M. Baggiolini, B. Moser, Nature 1996, 382, 833-835; M. Loetscher, T. Geiser, T. O'Reilly, R. Zwalen, M. Baggiolini, B. Moser, J. Biol. Chem. 1994, 269, 232-237; M. D'Apuuo, A. Rolink, M. Loetscher, J. A. Hoxie, I. Clark-Lewis, F. Melchors, M. Baggiolini, B. Moser, Eur. J. Immunol. 1997, 27, 1788-1793). The cells were batch loaded with the Calcium 4 Assay kit (Molecular Devices) in assay buffer (Hanks Balanced salt solution [HBSS], 20 mM HEPES, pH 7.4, 0.1% BSA) for 1 h at room temperature and labeled cells were dispensed into black well assays plates (Costar No. 3603). Calcium mobilization induced by stromal-derived factor-1 (SDF-1) was measured in the Flexstation 384 (excitation: 485 nm; emission: 525 nm) for 90 seconds. Antagonist activity of peptides was determined by spiking the cells with compounds prior to SDF-1 addition. Dose response curves (compound concentration versus % maximum response for SDF-1) were determined for each antagonist and IC50 values were calculated by fitting the data to a four parameter logistic equation using SoftmaxPro 4.8 (Molecular Devices).

[4] = Cytotoxicity, MTT reduction assay, HELA cells; type: cell-based; conditions: human, HELA cells (Acc57), 12.5-50 μM
Procedure: (§3) Mouse pre-B cells were cultured in RPMI1640 plus 5% FBS, antibiotic/antimycotic, non essential amino acid, 50 μM β-mercaptoethanol and 1 mM natrium pyruvate. HELA cells were maintained in RPMI1640 plus 10% FBS, pen/strept and 2 mM L-glutamine. Cos-7 cells were grown in DMEM medium with […] glucose supplemented with 10% FCS, pen/strept and 2 mM L-glutamine. All cell lines were grown at 37° C. at 5% CO2. Cell media, media supplements, PBS-buffer, HEPES, antibiotic/antimycotic, pen/strept, non essential amino acid, L-glutamine, β-mercaptoethanol and sera were purchased from Gibco (Pailsey, UK). All fine chemicals were supplied by Merck (Darmstadt, Germany).
(§4) The cytotoxicity of the peptides to HELA cells (Acc57) and COS-7 cells (CRL-1651) was determined using the MTT reduction assay (T. Mossman, J. Immunol. Meth. 1983, 65, 55-63; M. V. Berridge, A. S. Tan, Arch. Biochem. Biophys. 1993, 303, 474-482). Briefly, the method was as follows: 4000 HELA cells/well and 3400 COS-7 cells/well were seeded and grown in 96-well microtiter plates for 24 h at 37° C. at 5% CO2. Thereafter, time zero (Tz) was determined by MTT reduction (see below). The supernatant of the remaining wells was discarded, and fresh medium and compounds in serial dilutions (12.5, 25 and 50 μM, triplicates) were pipetted into the wells. After incubation of the cells for 48 h at 37° C. at 5% CO2 the supernatant was discarded again and 100 μL MTT reagent (0.5 mg/mL in RPMI1640 and DMEM, respectively)/well was added. Following incubation at 37° C. for 2-4 h the media were aspirated and the cells were spiked (100 μL isopropanol/well). The absorbance of the solubilized formazan was measured at 595 nm (OD595peptide). For each concentration averages were calculated from triplicates. The percentage of growth was calculated as follows: (OD595peptide-OD595Tz-OD595Empty well)/(OD595Tz-OD595Empty well)×100%. The GI50 (Growth Inhibition) concentrations were calculated for each peptide by using a trend line function for the concentrations (50, 25, 12.5 and 0 μM), the corresponding percentages and the value 50, (=TREND (C50: C0, %50:%0,50).

[5] = Plasma stability in human plasma; type: in vitro ADME; conditions: human plasma, 37° C.; for remaining at 24 h, 10 μM: 1440 min, read-out: human pl. cpd left at 1440 min; for human pl. T1/2: up to 1440 min
Procedure: as §1, §2

[6] = Cytotoxicity, MTT reduction assay, COS-7 cells; type: cell-based; conditions: African green monkey, COS-7 cells (CRL-1651), 12.5-50 μM
Procedure: as §3, §4

[7] = mouse pre-B cell line 300-19 transfected with human CXCR4, SDF-1 induced Ca2+ mobilization, read-out: IC50% [nM] ± SD, CXCR4 receptor

T1 sequence (P61073 whole entry): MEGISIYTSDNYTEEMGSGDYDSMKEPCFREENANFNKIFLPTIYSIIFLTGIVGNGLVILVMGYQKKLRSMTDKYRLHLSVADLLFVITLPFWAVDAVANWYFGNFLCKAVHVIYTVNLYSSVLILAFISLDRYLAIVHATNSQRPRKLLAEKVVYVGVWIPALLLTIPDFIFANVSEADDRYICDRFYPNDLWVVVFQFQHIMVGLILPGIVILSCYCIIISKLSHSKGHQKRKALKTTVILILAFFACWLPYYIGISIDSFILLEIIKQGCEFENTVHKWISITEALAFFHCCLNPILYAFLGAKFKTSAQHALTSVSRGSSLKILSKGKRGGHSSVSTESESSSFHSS

Compound | remaining at 24 h, 10 μM [1] [%] | mouse pl. T1/2 ([1]; up to 1440 min) [h] | Hemolysis at 100 μM [2] [%] | IC50 [3, 7] [nM] | GI50 at 48 h [4] [µM] | remaining at 24 h, 10 μM [5] [%] | human pl. T1/2 [5] [h] | GI50 at 48 h [6] [µM] | half-life at 10 μM ([1]; up to 1440 min, read-out: mouse pl. T1/2) [h] | IC50 [3] [nM]
CCCCCCCC(=O)NCCCC[C@@H]1NC(=O)[C@H](Cc2c[nH]cn2)NC(=O)[C@H](Cc2ccc(O)cc2)NC(=O)[C@@H]2CCCN2C(=O)[C@H]2CCCN2C(=O)[C@H](CCCCN)NC(=O)[C@H](CCC(N)=O)NC(=O)[C@H](Cc2ccc(O)cc2)NC(=O)[C@@H]2CSSC[C@H](NC1=O)C(=O)N[C@@H](CO)C(=O)N[C@@H](C)C(=O)N1CCC[C@@H]1C(=O)N[C@@H](CCN)C(=O)N[C@@H](CCCNC(=N)N)C(=O)N[C@@H](Cc1ccc(O)cc1)C(=O)N2 [Ex. 3] (cyclo(YHK(Octanoyl)CSA[dP][Dab]RYCYQK[dP]P); disulfide 4-11) | 86 | 24 | 0.6 | 19.4 ± 13 | > 45 | 86 | 24 | > 50 | – | –
CCCCCCCC(=O)NCCCC[C@@H]1NC(=O)[C@H](Cc2ccc(O)cc2)NC(=O)[C@@H]2CSSC[C@H](NC(=O)[C@H](Cc3ccc(O)cc3)NC(=O)[C@H](Cc3c[nH]cn3)NC(=O)[C@H](Cc3ccc(O)cc3)NC(=O)[C@@H]3CCCN3C(=O)[C@H]3CCCN3C(=O)[C@H](CCCCN)NC1=O)C(=O)N[C@@H](CO)C(=O)N[C@@H](C)C(=O)N1CCC[C@@H]1C(=O)N[C@@H](CCN)C(=O)N[C@@H](CCCNC(=N)N)C(=O)N[C@@H](Cc1ccc(O)cc1)C(=O)N2 [Ex. 12] (cyclo(YHYCSA[dP][Dab]RYCYK(Octanoyl)K[dP]P); disulfide 4-11) | 46 | – | 0.2 | 1.8 ± 1 | > 50 | 88 | 24 | > 50 | 7 | –
C[C@H](CCC(=O)NCC(=O)NCCCC[C@@H]1NC(=O)[C@H](CCC(N)=O)NC(=O)[C@H](Cc2ccc(O)cc2)NC(=O)[C@@H]2CSSC[C@H](NC(=O)[C@H]([C@@H](C)O)NC(=O)[C@H](Cc3c[nH]cn3)NC(=O)[C@H](Cc3ccc(O)cc3)NC(=O)[C@@H]3CCCN3C(=O)[C@H]3CCCN3C1=O)C(=O)N[C@@H](CCCNC(=N)N)C(=O)NCC(=O)N1CCC[C@@H]1C(=O)N[C@@H](CCN)C(=O)N[C@@H](CCCNC(=N)N)C(=O)N[C@@H](Cc1ccc(O)cc1)C(=O)N2)[C@H]1CC[C@H]2[C@@H]3[C@H](O)C[C@@H]4C[C@H](O)CC[C@]4(C)[C@H]3C[C@H](O)[C@]12C [Ex. 34] (cyclo(YHTCRG[dP][Dab]RYCYQK([Gly-Cholyl])[dP]P); disulfide 4-11) | 87 | 24 | 0.6 | – | > 45 | 100 | 24 | > 50 | – | 7.2 ± 0.3
CCCCCCCCCCOC[C@@H]1NC(=O)[C@H](Cc2ccc(O)cc2)NC(=O)[C@@H]2CSSC[C@H](NC(=O)[C@H]([C@@H](C)O)NC(=O)[C@H](Cc3c[nH]cn3)NC(=O)[C@H](Cc3ccc(O)cc3)NC(=O)[C@@H]3CCCN3C(=O)[C@H]3CCCN3C(=O)[C@H](CCC(N)=O)NC1=O)C(=O)N[C@@H](CCCNC(=N)N)C(=O)NCC(=O)N1CCC[C@@H]1C(=O)N[C@@H](CCN)C(=O)N[C@@H](CCCNC(=N)N)C(=O)N[C@@H](Cc1ccc(O)cc1)C(=O)N2 [Ex. 30] (cyclo(YHTCRG[dP][Dab]RYCYS(X3)Q[dP]P); disulfide 4-11) | – | – | 5.5 | – | > 50 | 54 | 24 | > 50 | – | 55.1 ± 19
CCCCCCCCCCCC(=O)NCC[C@@H]1NC(=O)[C@H](Cc2ccc(O)cc2)NC(=O)[C@@H]2CSSC[C@H](NC(=O)[C@H](C)NC(=O)[C@H](Cc3c[nH]cn3)NC(=O)[C@H](Cc3ccc(O)cc3)NC(=O)[C@@H]3CCCN3C(=O)[C@H]3CCCN3C(=O)[C@H](CCCCN)NC1=O)C(=O)N[C@@H](CCCNC(=N)N)C(=O)N[C@@H](C)C(=O)N1CCC[C@@H]1C(=O)N[C@@H](CCN)C(=O)N[C@@H](CCCNC(=N)N)C(=O)N[C@@H](Cc1ccc(O)cc1)C(=O)N2 [Ex. 11] (cyclo(YHACRA[dP][Dab]RYCY[Dab](Lauroyl)K[dP]P); disulfide 4-11) | – | – | 0.7 | 7.3 ± 4.7 | > 29 | 82 | 24 | > 50 | – | –
CCCCCCCCCC(=O)NCCCC[C@@H]1NC(=O)[C@H](Cc2ccc(O)cc2)NC(=O)[C@@H]2CSSC[C@H](NC(=O)[C@H]([C@@H](C)O)NC(=O)[C@H](Cc3c[nH]cn3)NC(=O)[C@H](Cc3ccc(O)cc3)NC(=O)[C@@H]3CCCN3C(=O)[C@H]3CCCN3C(=O)[C@H](CCCCN)NC1=O)C(=O)N[C@@H](CCCNC(=N)N)C(=O)NCC(=O)N1CCC[C@@H]1C(=O)N[C@@H](CCN)C(=O)N[C@@H](CCCNC(=N)N)C(=O)N[C@@H](Cc1ccc(O)cc1)C(=O)N2 [Ex. 15] (cyclo(YHTCRG[dP][Dab]RYCYK(Decanoyl)K[dP]P); disulfide 4-11) | – | – | 0.6 | 11.2 ± 4 | > 50 | 73 | 24 | > 40 | – | –
